In test [1] the target is T1, CDK2/CycE (Homo sapiens, UniProt P24941).
T1 construct: purchased ProQinase GmbH, Freiburg; host or cells: baculovirus-infected insect cells (Sf9)
Kind of test: CDK2/CycE kinase assay (Assay 2). In kind it is biochemical. Conditions: 0.5 μM ATP, histon IIIS substrate; read-out: CDK2/CycE (Assay 2) Concentration for 50% inhibition of enzyme activity, IC50. As to the method:
10.2 Assay 2: CDK2/CycE Kinase Assay
Recombinant CDK2 and CycE-GST fusion proteins, purified from baculovirus-infected insect cells (Sf9), were purchased from ProQinase GmbH, Freiburg. Histon IIIS, used as kinase substrate, was purchased from the company Sigma. CDK2/CycE (50 ng/measuring point) was incubated for 10 min at 22° C. in the presence of various concentrations of test substances (0 μM, and within the range 0.01-100 μM) in assay buffer [50 mM Tris/HCl pH8.0, 10 mM MgCl2, 0.1 mM Na ortho-vanadate, 1.0 mM dithiothreitol, 0.5 μM adenosine triphosphate (ATP), 10 μg/measuring point histon IIIS, 0.2 μCi/measuring point ^33P-gamma ATP, 0.05% NP40, 1.25% dimethylsulfoxide]. The reaction was stopped by adding EDTA solution (250 mM, pH8.0, 15 μl/measuring point).
(§1) From each reaction mixture, 15 μl was applied to P30 filter strips (from Wallac), and unincorporated ^33P-ATP was removed by washing the filter strips three times, for 10 min each time, in 0.5% phosphoric acid. After drying the filter strips for 1 hour at 70° C., the filter strips were covered with scintillator strips (MeltiLex™ A, from Wallac) and stoved for 1 hour at 90° C. The amount of incorporated ^33P (substrate phosphorylation) was determined by scintillation measurement in a gamma-radiation measuring instrument (Wallac). The measured data were standardized to 0% inhibition (enzyme reaction without inhibitor) and 100% inhibition (all assay components except enzyme). The IC50 values were determined by means of a 4-parameter fit using the company's own software.

Test [2] has as its target T2, VEGF receptor tyrosine kinase-2 (Homo sapiens, UniProt P35968).
T2 construct: GST; made in house; host or cells: baculovirus-infected insect cells (Sf9)
Kind of test: VEGF receptor-2 kinase assay (Assay 3). Format: biochemical. Conditions: 8 μM ATP, poly-(Glu4Tyr) substrate; read-out: VEGF-R2 (Assay 3) Concentration for 50% inhibition of enzyme activity, IC50. How it is done:
10.3 Assay 3: VEGF Receptor-2 Kinase Assay
Recombinant VEGF receptor tyrosine kinase-2 was purified as GST fusion protein from baculovirus-infected insect cells (Sf9). Poly-(Glu4Tyr), used as kinase substrate, was purchased from the company Sigma.
VEGF receptor tyrosine kinase (90 ng/measuring point) was incubated for 10 min at 22° C. in the presence of various concentrations of test substances (0 μM, and within the range 0.001-30 μM) in 30 μl assay buffer [40 mM Tris/HCl pH5.5, 10 mM MgCl2, 1 mM MnCl2, 3 μM Na ortho-vanadate, 1.0 mM dithiothreitol, 8 μM adenosine triphosphate (ATP), 0.96 μg/measuring point poly-(Glu4Tyr), 0.2 μCi/measuring point ^33P-gamma ATP, 1.4% dimethylsulfoxide]. The reaction was stopped by adding EDTA solution (250 mM, pH8.0, 15 μl/measuring point).
as §1

pIC50: −log10 of the molar value.

Experimental findings from patent publication US8735412B2, “Sulfoximine-substituted anilinopyrimidine derivatives as CDK inhibitors, the production thereof, and use as medicine” (Bayer Intellectual Property GmbH, priority 2008, dated 2014) are described below.

T2 sequence (P35968 20-1356): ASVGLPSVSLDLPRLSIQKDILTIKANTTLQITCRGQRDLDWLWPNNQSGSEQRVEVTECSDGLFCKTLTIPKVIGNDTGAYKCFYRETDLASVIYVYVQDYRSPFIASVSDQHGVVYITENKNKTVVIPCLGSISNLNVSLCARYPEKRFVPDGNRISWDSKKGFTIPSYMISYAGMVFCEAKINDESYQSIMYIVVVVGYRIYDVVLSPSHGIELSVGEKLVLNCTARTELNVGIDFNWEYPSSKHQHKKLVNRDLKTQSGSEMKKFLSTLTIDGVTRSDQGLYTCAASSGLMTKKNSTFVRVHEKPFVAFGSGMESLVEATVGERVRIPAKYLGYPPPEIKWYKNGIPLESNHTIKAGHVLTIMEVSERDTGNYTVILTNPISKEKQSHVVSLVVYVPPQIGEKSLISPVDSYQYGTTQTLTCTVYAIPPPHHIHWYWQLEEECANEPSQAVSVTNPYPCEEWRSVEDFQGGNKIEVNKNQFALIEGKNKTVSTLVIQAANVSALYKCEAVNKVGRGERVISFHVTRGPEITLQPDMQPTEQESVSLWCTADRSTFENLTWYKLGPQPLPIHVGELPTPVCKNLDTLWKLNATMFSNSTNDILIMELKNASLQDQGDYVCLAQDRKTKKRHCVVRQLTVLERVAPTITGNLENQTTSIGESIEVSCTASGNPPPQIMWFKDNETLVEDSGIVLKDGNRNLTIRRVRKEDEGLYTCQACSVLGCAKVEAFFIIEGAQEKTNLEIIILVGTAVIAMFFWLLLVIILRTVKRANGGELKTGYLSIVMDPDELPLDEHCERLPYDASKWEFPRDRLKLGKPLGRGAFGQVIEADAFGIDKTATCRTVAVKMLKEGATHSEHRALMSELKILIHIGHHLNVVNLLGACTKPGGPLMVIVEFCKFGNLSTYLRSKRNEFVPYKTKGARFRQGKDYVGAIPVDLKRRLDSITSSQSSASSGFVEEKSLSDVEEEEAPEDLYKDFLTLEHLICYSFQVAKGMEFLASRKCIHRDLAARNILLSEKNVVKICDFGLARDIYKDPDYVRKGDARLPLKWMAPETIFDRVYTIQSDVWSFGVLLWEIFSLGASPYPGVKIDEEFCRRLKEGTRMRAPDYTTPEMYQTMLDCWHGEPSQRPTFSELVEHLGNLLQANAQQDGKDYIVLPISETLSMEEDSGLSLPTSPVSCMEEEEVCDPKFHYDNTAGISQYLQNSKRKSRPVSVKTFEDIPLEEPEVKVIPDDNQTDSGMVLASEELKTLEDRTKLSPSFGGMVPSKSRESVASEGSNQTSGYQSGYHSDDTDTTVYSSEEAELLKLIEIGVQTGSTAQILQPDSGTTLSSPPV

As to `C[C@@H](O)[C@@H](C)Oc1nc(Nc2ccc(S(=N)(=O)C3CC3)cc2)ncc1Br` (single isomer, unassigned) [Example V14], the pIC50 in test [1] was 8.15; in test [2], 7.04.

For the compound `CCS(=N)(=O)c1ccc(Nc2ncc(Br)c(N[C@H](C)[C@@H](C)O)n2)cc1` (stereo partly shown) [Example V12], the pIC50 in test [1] is 8.52; in test [2], 7.49.
